{"source": "PubChem BioAssay (NCI)", "test_in_all_cases": "DTP human tumour cell line panel, 48 h", "key": {"OVCAR-8 ovarian": {"test_system": "OVCAR-8 ovarian"}, "NCI-H522 lung": {"test_system": "NCI-H522 lung"}, "SNB-19 CNS": {"test_system": "SNB-19 CNS"}, "SNB-75 CNS": {"test_system": "SNB-75 CNS"}, "NCI-H23 lung": {"test_system": "NCI-H23 lung"}, "MALME-3M melanoma": {"test_system": "MALME-3M melanoma"}, "NCI-H226 lung": {"test_system": "NCI-H226 lung"}, "786-0 renal": {"test_system": "786-0 renal"}, "RXF 393 renal": {"test_system": "RXF 393 renal"}, "SK-MEL-5 melanoma": {"test_system": "SK-MEL-5 melanoma"}}, "note": "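Dose response: 5 concentrations. Exposure: 48 h. Format: 96-well plates. Endpoint: linear interpolation; highest concentration if not reached. GI50 = concentration required for 50% inhibition of growth. TGI: concentration producing complete growth inhibition.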", "data": [{"smiles": "Clc1ccc2c(NCCCCNc3nc(N4CCCCC4)nc4ccccc34)ccnc2c1", "values": [{"measurement": "GI50", "setting": "OVCAR-8 ovarian", "value": 2820, "unit": "nM"}, {"measurement": "TGI", "setting": "OVCAR-8 ovarian", "value": 10.4, "unit": "µM"}, {"measurement": "GI50", "setting": "NCI-H522 lung", "value": 2040, "unit": "nM"}, {"measurement": "TGI", "setting": "NCI-H522 lung", "value": 5.3, "unit": "µM"}, {"measurement": "GI50", "setting": "SNB-19 CNS", "value": 3090, "unit": "nM"}, {"measurement": "TGI", "setting": "SNB-19 CNS", "value": 14.2, "unit": "µM"}, {"measurement": "GI50", "setting": "SNB-75 CNS", "value": 1320, "unit": "nM"}, {"measurement": "TGI", "setting": "SNB-75 CNS", "value": 3.13, "unit": "µM"}, {"measurement": "GI50", "setting": "NCI-H23 lung", "value": 4.67, "unit": "µM"}, {"measurement": "TGI", "setting": "NCI-H23 lung", "value": 19.2, "unit": "µM"}, {"measurement": "GI50", "setting": "MALME-3M melanoma", "value": 1850, "unit": "nM"}, {"measurement": "TGI", "setting": "MALME-3M melanoma", "value": 3.48, "unit": "µM"}, {"measurement": "GI50", "setting": "NCI-H226 lung", "value": 3.85, "unit": "µM"}, {"measurement": "TGI", "setting": "NCI-H226 lung", "value": 16.5, "unit": "µM"}, {"measurement": "GI50", "setting": "786-0 renal", "value": 1440, "unit": "nM"}, {"measurement": "TGI", "setting": "786-0 renal", "value": 2.76, "unit": "µM"}, {"measurement": "GI50", "setting": "RXF 393 renal", "value": 1660, "unit": "nM"}, {"measurement": "TGI", "setting": "RXF 393 renal", "value": 3.37, "unit": "µM"}, {"measurement": "GI50", "setting": "SK-MEL-5 melanoma", "value": 1770, "unit": "nM"}, {"measurement": "TGI", "setting": "SK-MEL-5 melanoma", "value": 3.18, "unit": "µM"}]}, {"smiles": "CCOc1ccc(NC(=O)C(=O)CC(=O)c2c[n+](=O)c3cc(C)c(C)cc3n2[O-])cc1", "values": [{"measurement": "TGI", "setting": "OVCAR-8 ovarian", "value": "> 100", "unit": "µM"}, {"measurement": "TGI", "setting": "NCI-H522 lung", "value": "> 100", "unit": "µM"}, {"measurement": "TGI", "setting": "SNB-19 CNS", "value": "> 100", "unit": "µM"}, {"measurement": "TGI", "setting": "SNB-75 CNS", "value": "> 100", "unit": "µM"}, {"measurement": "TGI", "setting": "NCI-H23 lung", "value": "> 100", "unit": "µM"}, {"measurement": "TGI", "setting": "MALME-3M melanoma", "value": "> 100", "unit": "µM"}, {"measurement": "TGI", "setting": "NCI-H226 lung", "value": "> 100", "unit": "µM"}, {"measurement": "TGI", "setting": "786-0 renal", "value": "> 100", "unit": "µM"}, {"measurement": "TGI", "setting": "RXF 393 renal", "value": "> 100", "unit": "µM"}, {"measurement": "TGI", "setting": "SK-MEL-5 melanoma", "value": "> 100", "unit": "µM"}]}, {"smiles": "O=C(/C=C/C12c3ccccc3C(c3ccccc31)C1C(=O)NC(=O)C12)c1ccncc1", "note": "(stereo not given)", "values": [{"measurement": "GI50", "setting": "OVCAR-8 ovarian", "value": 2410, "unit": "nM"}, {"measurement": "TGI", "setting": "OVCAR-8 ovarian", "value": 8.2, "unit": "µM"}, {"measurement": "GI50", "setting": "NCI-H522 lung", "value": 1610, "unit": "nM"}, {"measurement": "TGI", "setting": "NCI-H522 lung", "value": 3.74, "unit": "µM"}, {"measurement": "GI50", "setting": "SNB-19 CNS", "value": 2330, "unit": "nM"}, {"measurement": "TGI", "setting": "SNB-19 CNS", "value": 7.46, "unit": "µM"}, {"measurement": "GI50", "setting": "SNB-75 CNS", "value": 2190, "unit": "nM"}, {"measurement": "TGI", "setting": "SNB-75 CNS", "value": 10.9, "unit": "µM"}, {"measurement": "GI50", "setting": "NCI-H23 lung", "value": 2.09, "unit": "µM"}, {"measurement": "TGI", "setting": "NCI-H23 lung", "value": 4.45, "unit": "µM"}, {"measurement": "GI50", "setting": "MALME-3M melanoma", "value": 3160, "unit": "nM"}, {"measurement": "TGI", "setting": "MALME-3M melanoma", "value": 12.2, "unit": "µM"}, {"measurement": "GI50", "setting": "NCI-H226 lung", "value": 2.44, "unit": "µM"}, {"measurement": "TGI", "setting": "NCI-H226 lung", "value": 6.98, "unit": "µM"}, {"measurement": "GI50", "setting": "786-0 renal", "value": 1940, "unit": "nM"}, {"measurement": "TGI", "setting": "786-0 renal", "value": 4.76, "unit": "µM"}, {"measurement": "GI50", "setting": "RXF 393 renal", "value": 1740, "unit": "nM"}, {"measurement": "TGI", "setting": "RXF 393 renal", "value": 3.27, "unit": "µM"}, {"measurement": "GI50", "setting": "SK-MEL-5 melanoma", "value": 1720, "unit": "nM"}, {"measurement": "TGI", "setting": "SK-MEL-5 melanoma", "value": 3.25, "unit": "µM"}]}]}
